Test results taken from patent US20190059429A1, “SALT COMPOSITION INCLUDING SERINE” (NESTEC S.A., priority 2016, published 2019).

Assays:
[1] = Dissolution kinetics in water by online refractometry; assay type: physicochemical; conditions: 60 mL water, stirred 500 rpm, room temperature, particle size 100-200 μm, refractive index
Procedure: FIG. 1 Dissolution kinetics. The change in refractive index (n) was measured by online-refractometry in water over the time period 0 to 50 seconds. 0.56 g of pure NaCl (triangle); 2.58 g of (L-serine)2.sodium chloride co-crystals (diamond); a physical mixture of 2.02 g L-serine and 0.56 g NaCl (cross); and a 2.02 g of pure L-serine (star) were each added to 60 mL of water stirred (500 rpm) at room temperature. The particle size of the respective solids was standardized in the range 100-200 μm.
The rate of dissolution of a solid in a liquid may be measured by refractometry. A refractometer measures the extent to which light is refracted when it moves from air into a sample, thereby allowing the refractive index (n) of the sample to be measured. […] Accordingly, by monitoring the change in refractive index over time, the kinetic rate of dissolution of a solid can be determined. So that independent measurements of dissolution rate can be compared, the refractive index values may be normalised by expression as a percentage of the maximal value recorded in a particular experiment.
The dissolution behaviour of (L-serine)2.sodium co-crystals obtained by direct crystallisation from a saturated solution (Example 2) were tested by refractometry. In this experiment, test samples were added to 60 mL of water, and the extent of dissolution was measured while stirring at 500 rpm. […]

trained panellists = assay: Sensory evaluation of tablets by 11 trained panellists; assay type: in vivo; conditions: tablets 123.7 mg
Procedure: Bars coloured black denote a significant difference in a particular taste/sensory characteristic. Unshaded bars denote that there is no significant difference in the characteristic. A positive number represents an increased sensory response of the co-crystal compared to the physical mixture.
Tablets for sensory evaluation were prepared using a Romaco Kilian Styl'One single-stroke tablet press. […] The tablets were prepared with three compressions of 300 ms and an interval of 200 ms.
Each of the panellists received a tray with two tablets presented on plastic plates coded with random 3-digit numbers. The tablets had to be crunched with the front teeth and kept in mouth to dissolve slowly (method 1). Alternatively, tablets could be crunched with the front teeth and chewed constantly in the mouth until complete dissolution occurred (method 2).
Afterwards the panellists were asked to rate the taste of the tablets in respect of the following 12 categories: upfront saltiness (1), overall saltiness (2), sweetness (3), sourness (4), umami (5), friable (6), melting (7), overall persistence (8), saltiness persistence (9), sweetness persistence (10), sourness persistence (11), and tingling (12).

Row | SMILES | time to reach 90% dissolution [1] | salty taste perceived, co-crystal tablets vs L-serine/NaCl physical mix tablets (trained panellists; during and after consumption) | overall saltiness vs physical mix (trained panellists; FIG. 2) | saltiness persistence vs physical mix (trained panellists; FIG. 2) | upfront saltiness vs physical mix (trained panellists; FIG. 2)
1 | [Cl-].[Na+] [NaCl, Sodium chloride, reference compound] | around 25 seconds |  |  |  | 
2 | N[C@@H](CO)C(=O)O.N[C@@H](CO)C(=O)O.[Cl-].[Na+] [(L-serine)2.sodium chloride co-crystals, (L-serine)2.sodium chloride] | around 25 seconds | significantly more salty | superior | superior | superior
